Legend:
[1] = system: multi-junction preparations (branched tissue architecture) of rat cardiomyocytes; assay: Conduction velocity in branched (multi-junction) cardiomyocyte preparations, model of discontinuous conduction; assay type: cell-based; conditions: 10 nmol/L Gb3 for 24 hrs
Protocol: Impulse propagation along the patterned preparations was followed optically using a fast voltage-sensitive dye (Rohr et al., 1994, Biophys J., 67(3):1301-1315). In short, the preparations were stained for 3 to 4 minutes with 1 mL of the superfusion solution containing […] of the voltage-sensitive dye di-8-ANEPPS (Molecular Probes). The dye was excited by a short-arc xenon lamp driven by a low-ripple power supply (Optiquip). The light was, after passing a shutter (VS25S21 MO, Vincent Assoc), short-pass filtered (570 EFSP, Omega) and deflected toward the objective by means of a dichroic mirror (575 nm; Omega). Emitted fluorescence from the preparation was long-pass filtered (590 nm, Omega) and projected onto a 2-dimensional array of 379 optical fibers, which formed a hexagonal array (Rohr et al., 1998, Biophys J., 75(2):1062-1075). From the entire array, ≤80 fibers were selected according to the shape of a given preparation and were connected to individual photodiodes. […] Experiments were performed with a 20×, 0.75 numerical aperture (NA) objective (each detector monitored a circular area with a diameter of 50 um corresponding to 4 to 10 cells contributing to the signal) permitting assessment of activation along the preparations for distances up to 1 mm. […]
The raw data were analyzed by programming routines written in Interactive Data Language (IDL; Creaso). […]

[2] = system: tissue engineered strands of rat ventricular cardiomyocytes; assay: Conduction velocity along linear tissue engineered cardiomyocyte strands, optical recording with di-8-ANEPPS; assay type: cell-based; conditions: for Conduction velocity (CV) along strands of cardiomyocytes: mean+/-SD
Protocol: The effects of Gb3 on impulse propagation characteristics were investigated in tissue engineered strands of rat ventricular cardiomyocytes where impulse propagation was recorded using the voltage sensitive dye di-8-ANEPPS as described below.
Impulse propagation along the patterned preparations was followed optically using a fast voltage-sensitive dye (Rohr et al., 1994, Biophys J., 67(3):1301-1315). In short, the preparations were stained for 3 to 4 minutes with 1 mL of the superfusion solution containing […] of the voltage-sensitive dye di-8-ANEPPS (Molecular Probes). The dye was excited by a short-arc xenon lamp driven by a low-ripple power supply (Optiquip). The light was, after passing a shutter (VS25S21 MO, Vincent Assoc), short-pass filtered (570 EFSP, Omega) and deflected toward the objective by means of a dichroic mirror (575 nm; Omega). Emitted fluorescence from the preparation was long-pass filtered (590 nm, Omega) and projected onto a 2-dimensional array of 379 optical fibers, which formed a hexagonal array (Rohr et al., 1998, Biophys J., 75(2):1062-1075). From the entire array, ≤80 fibers were selected according to the shape of a given preparation and were connected to individual photodiodes. The resulting photocurrents were converted to voltages and amplified (typical overall gain of 2.5×10^9 V/A f0=1.6 kHz). The conditioned signals were simultaneously sampled at 20 kHz/channel by a computer-based data acquisition system. Experiments were performed with a 20×, 0.75 numerical aperture (NA) objective (each detector monitored a circular area with a diameter of 50 um corresponding to 4 to 10 cells contributing to the signal) permitting assessment of activation along the preparations for distances up to 1 mm.
After mounting the preparations in the experimental chamber, control superfusion was started (Hanks' balanced salt solution (HBSS), containing (mmol/L) NaCl 137, KCl 5.4, CaCl2 1.3, MgSO4 0.8, NaHCO3 4.2, KH2PO4 0.5, NaH2PO4 0.3, and HEPES 10, which was titrated to pH 7.40 with NaOH). The preparations were stimulated with bipolar electrodes consisting of glass micropipettes (filling, HBSS with 1% agar) and a silver wire coiled around the shank of the electrode. The electrodes were attached to micromanipulators (DC-3K, Marzhauser) and placed at a sufficient distance from the measurement site (1 mm) to (1) avoid electronically mediated stimulation artifacts to distort the signal of interest and (2) permit propagation to reach steady-state conditions at the site of the measurement. Rectangular impulses (duration, 1 ms; 2-3 times threshold intensity) were delivered to the preparations at a basic cycle length of 500 ms by a stimulator (SD9, Grass Instruments) for at least 10 seconds before a given optical recording. All experiments were performed at a temperature of 36+/−0.4° C.
The raw data were analyzed by programming routines written in Interactive Data Language (IDL; Creaso). The data processing typically involved manual selection of the upstroke portions of the action potentials to omit any signal distortion due to motion artifacts occurring several milliseconds after the upstrokes. The data were digitally low-pass filtered and signal amplitudes obtained under control conditions were set to 100%.
While control preparations conducted action potentials (APs) at a speed of 321.8±20.9 mm/sec (N=15), CVs in strands incubated with 10 nM Gb3 were increased by over 20% to 390.2±21.3 mm/sec (N=6, p<0.0001 versus control).

## globotriaosylceramide [Gb3]
[1]; versus control branched preparations
  Increase in CV in branched preparations treated with Gb3: ~67%
[1]; N=25, normalized to linear strands grown in parallel (control multi-junction 57.4±6.7%)
  CV in multi-junction preparations as % of linear strands: 84.7±2.3%
[2]; 10 nM Gb3, 24 hours exposure
  Increase of CV versus control: over 20%
[2]; 10 nM Gb3, 24 hours exposure, N=6, p<0.0001 versus control (control 321.8±20.9 mm/sec)
  Conduction velocity (CV) along strands of cardiomyocytes: 390.2±21.3 mm/sec
[2]; 100 nM Gb3, 24 hours exposure, p<0.005 vs control
  Conduction velocity (CV) along strands of cardiomyocytes: 358.8±20.3 mm/sec
[2]; 1 μM Gb3, 24 hours exposure, p=0.3 vs control
  Conduction velocity (CV) along strands of cardiomyocytes: 338.4±27.3 mm/sec
[2]; all Gb3 concentrations used, 24 hours exposure
  Cytotoxic effects: None of the concentrations of Gb3 used were associated with cytotoxic effects

From patent publication US12016870B2, “Agents for use in the treatment of cardiac arrhythmia” (priority 2018, dated 2024)
